Two molecules from EP3338554A1, “COMPOSITION AND METHOD FOR PREVENTING DEPOSIT FORMATION IN A DRIP IRRIGATION SYSTEM” (Evonik Degussa GmbH, priority 2016, dated 2018) can be followed below.

The assay is described as follows: Calcium sulfate precipitation test of NACE standard TM0374-2007 (scale inhibition efficiency). The protocol:
The efficiency for preventing the precipitation of calcium sulfate from aqueous solution was determined with the calcium sulfate precipitation test of NACE standard TM0374-2007. A composition prepared as in example 1 was added in amounts providing the concentrations of hydrogen peroxide and HEDP in the test brine given in table 4. The hydrogen peroxide and the HEDP used for making the composition were tested for comparison.

The structures appear in SMILES notation.

Take `CC(O)(P(=O)(O)O)P(=O)(O)O` [HEDP, 1-hydroxyethylidene-1,1-diphosphonic acid]: the “% inhibition in calcium sulfate precipitation test” value (HEDP 1 ppm alone) was determined as 39%, the “% inhibition in calcium sulfate precipitation test” value (HEDP 5 ppm alone) was 77% and the “% inhibition in calcium sulfate precipitation test” value (HEDP 10 ppm alone) came to 74%.

For `OO` [Hydrogen peroxide, hydrogen peroxide], the “% inhibition in calcium sulfate precipitation test” value runs as follows: (hydrogen peroxide 10 ppm alone) -8%; (hydrogen peroxide 50 ppm alone) -9%; (hydrogen peroxide 100 ppm alone) -9%.
